For 13 compounds, TGI and GI50 results are on record in PubChem BioAssay (NCI).

Among the test systems are MCF7 breast; NCI-H226 lung; SNB-75 CNS; IGROV1 ovarian; CAKI-1 renal; OVCAR-3 ovarian; HCC-2998 colon; EKVX NSCLC; UACC-257 melanoma; NCI-H522 lung.
What all share (assay): NCI-60 cell line screen, 48 h

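Growth conditions: 96-well plates. Treatment: test compound, 48 hours, 5 concentrations. Analysis: linear interpolation between bracketing concentrations; unreached endpoints set to highest concentration. At the GI50, growth is halved. TGI: total growth inhibition.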

As for `CCOC(=O)C(Cc1ccccc1)(Cc1ccc(O)cn1)NC(=O)c1ccccc1` (stereo not given), the TGI in the test with MCF7 breast was 51.5 µM; in the test with NCI-H226 lung, above 100 µM; with SNB-75 CNS it was above 100 µM; in the test with IGROV1 ovarian, 96.7 µM; with CAKI-1 renal, 87 µM; in the test on OVCAR-3 ovarian, 47.8 µM. Moreover, the TGI in the test on HCC-2998 colon was above 100 µM; in the test with EKVX NSCLC, above 100 µM; in the test with UACC-257 melanoma, 95 µM; in the test with NCI-H522 lung, 53.8 µM.

For `CCN(CC)CCCNc1ccc2nnn3c4ccc(O)cc4c(=O)c1c23`, the TGI worked out at 34 µM in the test on MCF7 breast; 22.4 µM in the test on NCI-H226 lung; 20.2 µM in the test on SNB-75 CNS; 19.4 µM in the test on IGROV1 ovarian; 17 µM with CAKI-1 renal; 25.2 µM in the test on OVCAR-3 ovarian. The TGI with HCC-2998 colon came out at 23.4 µM; in the test with EKVX NSCLC, 29.8 µM; with UACC-257 melanoma, 32.6 µM; in the test with NCI-H522 lung, 24.3 µM.

`COc1cccc(-c2nc3sccn3c2-c2ccnc(NCCNC(=O)Nc3cccc(C(F)(F)F)c3)n2)c1`: the GI50 in the test on MCF7 breast is 3.12 µM; in the test with NCI-H226 lung, 4.58 µM; in the test on SNB-75 CNS, 3.41 µM; in the test on IGROV1 ovarian, 3.32 µM; with CAKI-1 renal, 3.5 µM; in the test with OVCAR-3 ovarian, 4.22 µM. In addition, the GI50 in the test on HCC-2998 colon is 3.75 µM; with EKVX NSCLC it was 3.55 µM; in the test with UACC-257 melanoma, 4.34 µM; with NCI-H522 lung, 2.67 µM. Besides, the TGI in the test with MCF7 breast was determined as 13.3 µM; in the test with NCI-H226 lung, 68.6 µM; with SNB-75 CNS, 21.7 µM; in the test on IGROV1 ovarian, 21.8 µM; in the test on CAKI-1 renal, 10.3 µM; in the test with OVCAR-3 ovarian, 20.3 µM. Moreover, the TGI with HCC-2998 colon was 18.7 µM; in the test on EKVX NSCLC, 59.6 µM; in the test on UACC-257 melanoma it was 16.5 µM; in the test with NCI-H522 lung, 8.51 µM.

For `Cc1[nH]c(-c2ccccc2)c(-c2ccc(Cl)cc2)c1C(=O)ONC(=O)c1ccccc1`, the TGI in the test on MCF7 breast amounted to 28 µM; in the test on NCI-H226 lung, 11.6 µM; with SNB-75 CNS, 15.1 µM; with IGROV1 ovarian it was 2.52 µM; with CAKI-1 renal, 6.88 µM; with OVCAR-3 ovarian, 14.9 µM. For the same compound, the TGI in the test on HCC-2998 colon amounted to 16.2 µM; in the test with EKVX NSCLC, 9.77 µM; in the test on UACC-257 melanoma, 20.8 µM; with NCI-H522 lung, 5.42 µM.

Consider `O=C1NC(N/N=C\c2ccccc2)=N/C1=C/c1ccc(Cl)cc1`, for which the TGI in the test on MCF7 breast was 57.4 µM; with NCI-H226 lung, 43.3 µM; in the test on SNB-75 CNS, 42.2 µM; with IGROV1 ovarian, 41.2 µM; with CAKI-1 renal it was above 100 µM; in the test on OVCAR-3 ovarian it was 39.7 µM. Further, the TGI in the test on HCC-2998 colon is 36.9 µM; in the test with EKVX NSCLC it was 67.4 µM; in the test on UACC-257 melanoma, above 100 µM; in the test with NCI-H522 lung, 44.4 µM.

As for `COC(=O)c1cncc2c1CC1C3(C(=O)OC)C=NC(C4C(CO)=CCC43)C21C` (stereo not given), the TGI with MCF7 breast, in the test with NCI-H226 lung, in the test with SNB-75 CNS, in the test on IGROV1 ovarian, in the test with CAKI-1 renal and in the test on HCC-2998 colon was above 100 µM each time. Also, the TGI in the test on EKVX NSCLC, in the test with UACC-257 melanoma and in the test on NCI-H522 lung was above 100 µM in each case.

For the compound `O=C(NNC(=S)Nc1ccccc1)c1csc(NC(=S)NC2CCCCC2)n1`, the TGI with MCF7 breast, in the test with SNB-75 CNS, with IGROV1 ovarian, in the test with CAKI-1 renal, in the test on OVCAR-3 ovarian and in the test with HCC-2998 colon was above 100 µM each time. The results for the TGI with EKVX NSCLC, with UACC-257 melanoma and with NCI-H522 lung were above 100 µM, 56.8 µM and above 100 µM, respectively.

Turning to `N#CCc1nc(C#N)c(N)o1`, the TGI in the test with MCF7 breast, in the test with NCI-H226 lung, with SNB-75 CNS, with IGROV1 ovarian, with CAKI-1 renal and in the test with OVCAR-3 ovarian was above 100 µM throughout. The TGI in the test on HCC-2998 colon, with EKVX NSCLC, in the test on UACC-257 melanoma and in the test on NCI-H522 lung was above 100 µM in each case. In addition, the GI50 with SNB-75 CNS and with EKVX NSCLC was above 100 µM throughout.

Consider `CCOC(=O)c1c(N2CCOCC2)[nH]c(=O)c(C(c2ccc(OC)cc2)c2c(O)c(C(=O)OCC)c(N3CCOCC3)[nH]c2=O)c1O`, for which the TGI in the test on MCF7 breast, in the test with NCI-H226 lung, with SNB-75 CNS, in the test with CAKI-1 renal, in the test with OVCAR-3 ovarian and with HCC-2998 colon was above 100 µM each time. Also, the TGI with EKVX NSCLC, in the test on UACC-257 melanoma and in the test on NCI-H522 lung was above 100 µM throughout.

On to `O=C(O)c1ccc(Nc2nc3cc(C(F)(F)F)ccc3nc2C(=O)O)cc1`, for which the TGI in the test with MCF7 breast, in the test with NCI-H226 lung, with SNB-75 CNS, with IGROV1 ovarian, in the test on CAKI-1 renal and in the test with OVCAR-3 ovarian was above 100 µM each time. The TGI in the test with HCC-2998 colon, in the test with EKVX NSCLC and in the test with NCI-H522 lung was above 100 µM in each case.

For the compound `CCOC(=O)c1sc2c(c1OC(=O)c1ccccc1)c(=O)n(-c1ccccc1)c(=S)n2-c1ccccc1`, the TGI in the test on MCF7 breast is above 100 µM; in the test on NCI-H226 lung it was above 100 µM; in the test with IGROV1 ovarian, 43.3 µM; in the test with CAKI-1 renal, above 100 µM; in the test with OVCAR-3 ovarian it was 95.6 µM; with HCC-2998 colon it was 74.5 µM. In addition, the TGI with EKVX NSCLC was above 100 µM; in the test on UACC-257 melanoma, above 100 µM; in the test on NCI-H522 lung it was 56.3 µM.

Regarding `COC(=O)C(COC(=O)/C=C/c1ccc(OC(C)=O)c(OC(C)=O)c1)OC(=O)/C=C/c1ccc(OC(C)=O)c(OC(C)=O)c1` (stereo not given), the TGI in the test on MCF7 breast came to 21.8 µM; with NCI-H226 lung, 90.5 µM; in the test with IGROV1 ovarian, 23.9 µM; in the test with CAKI-1 renal, 43.1 µM; in the test with OVCAR-3 ovarian it was 29.9 µM; in the test with HCC-2998 colon, 43.4 µM. In addition, the TGI with EKVX NSCLC came out at 36.9 µM; in the test on UACC-257 melanoma, 29.9 µM; in the test on NCI-H522 lung, 26.7 µM.

As for `Cc1ccc(O)c(C2=NNC(c3cccc(Br)c3)C2)c1` (stereo not given), the TGI with MCF7 breast, with NCI-H226 lung, in the test on IGROV1 ovarian, in the test on CAKI-1 renal, in the test with OVCAR-3 ovarian and in the test with HCC-2998 colon was above 100 µM in each case. Besides, the TGI in the test with EKVX NSCLC, in the test with UACC-257 melanoma and in the test on NCI-H522 lung was above 100 µM throughout.
